{"source": "patent US20070154962A1", "about": "“Bcl-2 promoted cell death” (priority 2005, published 2007)", "format_in_all_cases": "cell-based", "key": {"PC12 cells [1]": {"system": "PC12 cells", "experiment": "Flow cytometry of sub-G1 nuclei from PC12 cells transiently transfected with Bcl-2-GFP and exposed to H2O2", "conditions": "treated cells compared with untreated controls; FIG. 5", "text": "FIG. 5: Flow cytometry measuring apoptotic cells from PC12 cells transiently transfected with Bcl-2-GFP with and without H2O2 treatment.\nAn alternative explanation would be that Bcl-2 relocates to the nucleus in response to apoptosis. […] However, there was no increase in the percent of sub-G1 nuclei carrying Bcl-2-GFP in cells treated with H2O2 as compared to untreated cells. In fact, there was a paradoxical decrease, which is expected if one appreciates that the number of sub-G1 nuclei increased after H2O2 treatment without a concomitant increase of nuclear Bcl-2-GFP. Therefore, nuclear association of Bcl-2 was […] apoptosis."}, "[2]": {"system": "PC12 cells stably expressing vector or Bcl-2", "experiment": "Cell survival (renilla luciferase) of stably transfected PC12 cells transiently transfected with BH4 peptide vector", "conditions": "FIG. 19", "protocol": "FIG. 19: Cell survival was measured in PC12 cells stably expressing vector or Bcl-2. These two cell lines were transiently co-transfected with luciferase and either vector, BH4 domain, or BH4Gly.\n(§1) The overall rationale of the experiment was to determine if domain interference disrupted Bcl-2/FKBP38 binding, changed Bcl-2's cellular localization (i.e., result in Bcl-2 misplacement at the nucleus) and ultimately promoted Bcl-2-triggered apoptosis. […] The rationale for using a peptide larger that the BH4 domain itself was to provide structure stability to the alpha-helix of the BH4 domain (AA 11-25) through sufficient flanking regions. Cells were further co-transfected with renilla luciferase so as to determine the extent of their survival. […] It is important to note that PC12 cells expressing Bcl-2 cells diddo not depend on Bcl-2 for their survival and therefore the effect of the BH4 peptide was not due to abolishment of Bcl-2 protection. Rather, it reflected an active induction of apoptosis by Bcl-2, triggered by the BH4 peptide. The possibility that PC12 cells expressing Bcl-2 may have undergone selection during the establishment of stable transfection that could have rendered them non-specifically sensitive to the BH4 peptide was excluded."}, "PC12 cells [3]": {"system": "PC12 cells", "experiment": "Cell survival of naive PC12 cells transiently co-transfected with Bcl-2 or vector and BH4 or BH4Gly", "conditions": "transient (24 hr) transfection of the BH4 vector alone, without Bcl-2, FIG. 20", "protocol": "FIG. 20: Cell survival was measured in PC12 cells transiently co-transfected with Bcl-2 or vector, and either vector, BH4 or BH4Gly.\nas §1"}, "[4]": {"system": "Human leukemia cells (HL-60)", "experiment": "Cell death as LDH release in HL-60 cells transiently transfected with BH4 peptide-expressing vector", "conditions": "HL-60, 48 after transfection, vs. Flag or BH4Gly; FIG. 24", "protocol": "The extent of cell death was assessed 48 after transfection as release of LDH in the cell culture medium.\nThe extent of cell death was assessed 48 after transfection as release of LDH in the cell culture medium. Statistical difference was vs. Flag or BH4Gly (Two-tailed Student “t” test; N=4-7 independent measurements per group)."}}, "data": [{"molecule": "OO", "note": "[H2O2]", "values": [{"measurement": "sub-G1 (apoptotic) nuclei", "setting": "PC12 cells [1]", "result": "substantial increase"}]}, {"molecule": "BH4 peptide: vector-expressed peptide identical to the N-terminal 30 amino acids of Bcl-2, including the 11-25 BH4 domain (MAHAGRTGYDNREIVMKYIHYKLSQRGYEW; UniProt P10415 1-30, looked up, fragment)", "values": [{"measurement": "induction of apoptosis / survival", "setting": "[2]; PC12 cells not expressing Bcl-2 (empty vector pmKitNeo)", "result": "unaffected"}, {"measurement": "survival of cells (renilla luciferase)", "setting": "[2]; PC12 cells stably expressing Bcl-2, compared with BH4-transfected cells stably expressing empty pmKitNeo", "result": "significantly lower"}, {"measurement": "cell survival", "setting": "PC12 cells [3]", "result": "did not affect cell survival"}, {"measurement": "cell death (release of LDH in the cell culture medium)", "setting": "[4]", "result": "effective in inducing cell death"}]}]}
